Article PMC3228837 (Journal of medicinal chemistry, 2011)

Columns and labels:
[1] = target: NaV1.2 (Rattus norvegicus, UniProt P04775); type: cell-based
[2] = target: NaV1.6 (Mus musculus, UniProt Q9WTU3); type: cell-based
Sequence of NaV1.6 (Q9WTU3 whole entry, looked up): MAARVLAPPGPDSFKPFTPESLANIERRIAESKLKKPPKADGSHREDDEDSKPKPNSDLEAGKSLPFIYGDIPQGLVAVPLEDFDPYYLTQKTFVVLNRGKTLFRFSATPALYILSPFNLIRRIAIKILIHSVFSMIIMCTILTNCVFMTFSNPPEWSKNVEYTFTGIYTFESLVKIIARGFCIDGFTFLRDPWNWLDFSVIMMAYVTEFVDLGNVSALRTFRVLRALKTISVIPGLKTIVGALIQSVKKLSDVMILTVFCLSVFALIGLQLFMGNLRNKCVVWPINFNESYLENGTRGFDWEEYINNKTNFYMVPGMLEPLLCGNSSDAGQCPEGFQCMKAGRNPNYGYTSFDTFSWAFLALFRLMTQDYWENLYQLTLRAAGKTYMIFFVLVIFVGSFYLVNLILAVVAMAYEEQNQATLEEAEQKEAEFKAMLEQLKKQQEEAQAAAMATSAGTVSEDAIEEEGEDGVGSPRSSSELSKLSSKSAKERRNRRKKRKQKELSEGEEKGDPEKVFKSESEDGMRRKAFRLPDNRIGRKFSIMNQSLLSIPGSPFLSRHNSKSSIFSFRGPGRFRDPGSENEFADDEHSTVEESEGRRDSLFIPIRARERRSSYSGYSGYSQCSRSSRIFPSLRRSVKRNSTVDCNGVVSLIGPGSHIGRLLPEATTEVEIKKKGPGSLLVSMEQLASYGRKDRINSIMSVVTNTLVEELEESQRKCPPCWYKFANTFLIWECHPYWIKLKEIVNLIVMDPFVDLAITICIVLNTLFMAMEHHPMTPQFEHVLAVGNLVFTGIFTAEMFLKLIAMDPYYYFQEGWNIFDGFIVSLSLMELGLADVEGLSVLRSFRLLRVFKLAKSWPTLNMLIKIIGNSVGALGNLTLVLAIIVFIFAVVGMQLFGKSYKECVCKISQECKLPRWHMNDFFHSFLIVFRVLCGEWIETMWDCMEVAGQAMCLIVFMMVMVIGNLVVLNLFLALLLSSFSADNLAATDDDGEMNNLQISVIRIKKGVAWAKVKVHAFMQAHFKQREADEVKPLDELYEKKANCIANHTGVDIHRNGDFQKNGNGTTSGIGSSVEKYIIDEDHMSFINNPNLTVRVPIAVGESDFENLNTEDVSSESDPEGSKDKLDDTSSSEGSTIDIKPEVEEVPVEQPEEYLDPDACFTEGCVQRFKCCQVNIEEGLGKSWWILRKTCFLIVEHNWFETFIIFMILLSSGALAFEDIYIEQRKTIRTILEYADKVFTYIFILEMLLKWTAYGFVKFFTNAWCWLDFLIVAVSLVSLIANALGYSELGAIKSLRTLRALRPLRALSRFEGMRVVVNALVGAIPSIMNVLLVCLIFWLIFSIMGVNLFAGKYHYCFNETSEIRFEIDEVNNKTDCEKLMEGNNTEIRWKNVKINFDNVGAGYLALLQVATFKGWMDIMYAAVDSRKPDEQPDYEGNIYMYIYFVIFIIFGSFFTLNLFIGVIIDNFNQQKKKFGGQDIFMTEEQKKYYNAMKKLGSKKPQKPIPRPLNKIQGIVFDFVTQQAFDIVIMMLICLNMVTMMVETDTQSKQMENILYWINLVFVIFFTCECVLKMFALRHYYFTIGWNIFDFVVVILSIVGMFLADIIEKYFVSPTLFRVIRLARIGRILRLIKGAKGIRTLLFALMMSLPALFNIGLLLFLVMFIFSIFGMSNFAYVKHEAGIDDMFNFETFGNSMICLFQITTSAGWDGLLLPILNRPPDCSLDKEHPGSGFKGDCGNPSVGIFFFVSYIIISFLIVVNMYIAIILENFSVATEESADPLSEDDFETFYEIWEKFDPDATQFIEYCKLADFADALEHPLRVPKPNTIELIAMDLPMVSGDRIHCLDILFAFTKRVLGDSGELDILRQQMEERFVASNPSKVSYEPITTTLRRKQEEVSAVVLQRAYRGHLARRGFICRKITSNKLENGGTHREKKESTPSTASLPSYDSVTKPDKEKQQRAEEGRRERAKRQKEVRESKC

Sequence of NaV1.2 (P04775 whole entry, looked up): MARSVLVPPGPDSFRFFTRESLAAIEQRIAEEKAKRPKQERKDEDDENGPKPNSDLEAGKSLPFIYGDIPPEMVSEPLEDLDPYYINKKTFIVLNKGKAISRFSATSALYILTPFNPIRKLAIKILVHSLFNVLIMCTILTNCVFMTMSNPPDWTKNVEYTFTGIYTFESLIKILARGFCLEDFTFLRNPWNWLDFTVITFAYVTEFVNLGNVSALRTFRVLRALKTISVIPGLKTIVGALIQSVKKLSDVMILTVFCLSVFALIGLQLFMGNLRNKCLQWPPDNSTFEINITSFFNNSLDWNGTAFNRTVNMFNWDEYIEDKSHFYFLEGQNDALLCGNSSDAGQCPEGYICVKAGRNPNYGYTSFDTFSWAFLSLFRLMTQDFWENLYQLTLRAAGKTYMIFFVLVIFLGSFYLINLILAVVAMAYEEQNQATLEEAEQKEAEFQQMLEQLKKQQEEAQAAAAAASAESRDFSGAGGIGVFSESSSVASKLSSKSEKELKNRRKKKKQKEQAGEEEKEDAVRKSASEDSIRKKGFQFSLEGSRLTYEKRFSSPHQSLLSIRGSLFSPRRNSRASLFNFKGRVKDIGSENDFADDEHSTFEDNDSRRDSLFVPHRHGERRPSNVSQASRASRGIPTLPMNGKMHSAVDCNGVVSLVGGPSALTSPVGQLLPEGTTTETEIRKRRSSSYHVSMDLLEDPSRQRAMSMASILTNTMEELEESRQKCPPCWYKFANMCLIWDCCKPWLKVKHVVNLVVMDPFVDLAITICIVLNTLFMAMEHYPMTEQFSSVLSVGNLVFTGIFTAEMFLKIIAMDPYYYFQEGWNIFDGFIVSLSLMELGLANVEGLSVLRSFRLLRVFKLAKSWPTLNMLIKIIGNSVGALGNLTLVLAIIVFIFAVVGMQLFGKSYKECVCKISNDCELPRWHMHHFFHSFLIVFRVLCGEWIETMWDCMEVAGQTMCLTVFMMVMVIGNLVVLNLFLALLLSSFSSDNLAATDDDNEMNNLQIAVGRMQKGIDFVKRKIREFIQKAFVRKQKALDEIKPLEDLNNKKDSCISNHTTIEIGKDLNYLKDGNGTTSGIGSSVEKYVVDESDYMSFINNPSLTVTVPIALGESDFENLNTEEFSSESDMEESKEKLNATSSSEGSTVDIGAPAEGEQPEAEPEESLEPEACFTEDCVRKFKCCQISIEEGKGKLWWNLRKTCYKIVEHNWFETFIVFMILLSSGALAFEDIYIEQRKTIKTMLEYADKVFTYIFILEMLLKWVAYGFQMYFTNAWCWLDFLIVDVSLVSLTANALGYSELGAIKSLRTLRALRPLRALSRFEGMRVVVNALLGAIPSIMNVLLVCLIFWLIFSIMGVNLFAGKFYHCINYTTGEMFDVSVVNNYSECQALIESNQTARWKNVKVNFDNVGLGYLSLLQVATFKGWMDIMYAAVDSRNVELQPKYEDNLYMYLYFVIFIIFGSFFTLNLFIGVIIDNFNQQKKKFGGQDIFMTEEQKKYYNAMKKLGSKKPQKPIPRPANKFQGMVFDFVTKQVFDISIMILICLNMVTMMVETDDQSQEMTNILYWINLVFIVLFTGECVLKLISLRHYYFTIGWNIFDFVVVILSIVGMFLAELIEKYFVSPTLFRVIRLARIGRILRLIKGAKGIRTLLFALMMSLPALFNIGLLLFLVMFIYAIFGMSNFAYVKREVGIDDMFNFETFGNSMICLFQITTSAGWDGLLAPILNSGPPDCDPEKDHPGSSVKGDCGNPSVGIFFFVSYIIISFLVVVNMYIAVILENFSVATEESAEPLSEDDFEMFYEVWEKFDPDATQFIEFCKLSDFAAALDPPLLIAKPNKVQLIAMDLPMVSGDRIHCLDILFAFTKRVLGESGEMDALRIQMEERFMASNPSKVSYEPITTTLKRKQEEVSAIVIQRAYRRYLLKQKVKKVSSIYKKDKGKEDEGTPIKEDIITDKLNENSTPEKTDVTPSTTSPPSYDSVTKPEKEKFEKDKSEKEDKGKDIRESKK

Ac-DSKWKRDHSR-NH2 [Peptide D5K9]
% block of NaV1.2 [1]: 33.1 ± 0.9%
% block of NaV1.6 [2]: 36.0 ± 0.7%
